Assay results published in ChEMBL document CHEMBL3885881, “DrugMatrix”.
Where “and” joins values, the source holds several entries; their conditions need not be identical. Identical values can stand only once.

Species: Rattus norvegicus
Assay: DrugMatrix - Regimen: Daily Repeat
Assay type: toxicity, organism-based, Sprague-Dawley
Set-up: regimen Daily Repeat, gender Male, age 6-8 weeks
Details: in vivo, ip, route intraperitoneal, vehicle 100 % SALINE; for ABSOLUTE BASOPHIL / ABSOLUTE EOSINOPHIL / ABSOLUTE LYMPHOCYTE / ABSOLUTE MONOCYTE / ABSOLUTE SEGMENTED NEUTROPHIL / BASOPHIL / EOSINOPHIL / ERYTHROCYTE COUNT / HEMATOCRIT / HEMOGLOBIN / LEUKOCYTE COUNT / LYMPHOCYTE / MEAN CORPUSCULAR HEMOGLOBIN / MEAN CORPUSCULAR HEMOGLOBIN CONCENTRATION / MEAN CORPUSCULAR VOLUME / MONOCYTE / NEUTROPHIL / PLATELET COUNT: tissue Blood; for ALANINE AMINOTRANSFERASE / ALBUMIN / ALKALINE PHOSPHATASE / ASPARTATE AMINOTRANSFERASE / BLOOD UREA NITROGEN / CARBON DIOXIDE / CHOLESTEROL / CREATINE PHOSPHOKINASE / CREATININE / GLUCOSE / LACTATE DEHYDROGENASE / LIPASE / PHOSPHORUS / POTASSIUM / SODIUM / TOTAL BILIRUBIN / TOTAL PROTEIN / URIC ACID / CHLORIDE: tissue Plasma
[1] = 0 mg/kg, 120 h, dose level Control, time 5 day
[2] = 0 mg/kg, […], dose level Control, time 14 day
[3] = 0 mg/kg, […], dose level Control, time 28 day
[4] = 8 mg/kg, 120 h, dose level High, time 5 day
[5] = 8 mg/kg, […], dose level High, time 14 day
[6] = 8 mg/kg, […], dose level High, time 28 day

Substance: GOLD SODIUM THIOMALATE
- ABSOLUTE BASOPHIL [1]: 32 cells/µL
- ABSOLUTE EOSINOPHIL [1]: 110 cells/µL
- ABSOLUTE LYMPHOCYTE [1]: 6630 cells/µL
- ABSOLUTE MONOCYTE [1]: 140 cells/µL
- ABSOLUTE SEGMENTED NEUTROPHIL [1]: 1170 cells/µL
- BASOPHIL [1]: 0.38% and 0.35%
- EOSINOPHIL [1]: 1.28% and 0.62%
- ERYTHROCYTE COUNT [1]: 7.45 x10E6/uL and 7.26 x10E6/uL
- HEMATOCRIT [1]: 45.74% and 47.97%
- HEMOGLOBIN [1]: 14.72 G/DL and 15.38 G/DL
- LEUKOCYTE COUNT [1]: 8.11 x10E3/uL and 8.68 x10E3/uL
- LYMPHOCYTE [1]: 81.3% and 86.77%
- MEAN CORPUSCULAR HEMOGLOBIN [1]: 19.76 pg and 21.18 pg
- MEAN CORPUSCULAR HEMOGLOBIN CONCENTRATION [1]: 32.16 G/DL and 32.05 G/DL
- MEAN CORPUSCULAR VOLUME [1]: 61.38 fL and 66.15 fL
- MONOCYTE [1]: 1.76% and 1.57%
- NEUTROPHIL [1]: 14.9% and 9.53%
- PLATELET COUNT [1]: 1322.4 x10E3/uL and 1786 x10E3/uL
- ALANINE AMINOTRANSFERASE [1]: 25.8 u/L and 20.5 u/L
- ALBUMIN [1]: 3.64 G/DL and 4.35 G/DL
- ALKALINE PHOSPHATASE [1]: 300 u/L
- ASPARTATE AMINOTRANSFERASE [1]: 81.4 u/L and 86.75 u/L
- BLOOD UREA NITROGEN [1]: 14.4 mg/dL and 17 mg/dL
- CARBON DIOXIDE [1]: 29 mmol/L
- CHOLESTEROL [1]: 69.2 mg/dL and 51.25 mg/dL
- CREATINE PHOSPHOKINASE [1]: 303.2 u/L and 384.75 u/L
- CREATININE [1]: 0.56 mg/dL and 0.47 mg/dL
- GLUCOSE [1]: 125.4 mg/dL and 128.75 mg/dL
- LACTATE DEHYDROGENASE [1]: 105.4 u/L and 145 u/L
- LIPASE [1]: 22.4 u/L and 13.25 u/L
- PHOSPHORUS [1]: 11.8 mg/dL
- POTASSIUM [1]: 5.52 MEQ/L and 6.58 MEQ/L
- SODIUM [1]: 147 MEQ/L and 151 MEQ/L
- TOTAL BILIRUBIN [1]: 0.2 mg/dL and 0.33 mg/dL
- TOTAL PROTEIN [1]: 6.1 G/DL and 6.53 G/DL
- URIC ACID [1]: 1.06 mg/dL and 1.95 mg/dL
- ABSOLUTE BASOPHIL [2]: 130 cells/µL
- ABSOLUTE EOSINOPHIL [2]: 140 cells/µL
- ABSOLUTE LYMPHOCYTE [2]: 13500 cells/µL
- ABSOLUTE MONOCYTE [2]: 400 cells/µL
- ABSOLUTE SEGMENTED NEUTROPHIL [2]: 2330 cells/µL
- HEMATOCRIT [2]: 45.98%
- HEMOGLOBIN [2]: 15.17 G/DL
- MEAN CORPUSCULAR VOLUME [2]: 59.4 fL
- NEUTROPHIL [2]: 14.14%
- ABSOLUTE BASOPHIL [3]: 91 cells/µL
- ABSOLUTE EOSINOPHIL [3]: 110 cells/µL
- ABSOLUTE LYMPHOCYTE [3]: 9910 cells/µL
- ABSOLUTE MONOCYTE [3]: 210 cells/µL
- ABSOLUTE SEGMENTED NEUTROPHIL [3]: 1560 cells/µL
- BASOPHIL [3]: 0.77%
- EOSINOPHIL [3]: 0.92%
- ERYTHROCYTE COUNT [3]: 8.21 x10E6/uL
- HEMATOCRIT [3]: 47.53%
- HEMOGLOBIN [3]: 15.65 G/DL
- LEUKOCYTE COUNT [3]: 11.91 x10E3/uL
- LYMPHOCYTE [3]: 83.34%
- MEAN CORPUSCULAR HEMOGLOBIN [3]: 19.07 pg
- MEAN CORPUSCULAR HEMOGLOBIN CONCENTRATION [3]: 32.93 G/DL
- MEAN CORPUSCULAR VOLUME [3]: 57.9 fL
- MONOCYTE [3]: 1.68%
- NEUTROPHIL [3]: 12.97%
- PLATELET COUNT [3]: 1323.8 x10E3/uL
- ALBUMIN [2]: 3.66 G/DL
- CARBON DIOXIDE [2]: 25 mmol/L
- CHLORIDE [2]: 107 MEQ/L
- CREATINE PHOSPHOKINASE [2]: 410.25 u/L
- SODIUM [2]: 149.2 MEQ/L
- URIC ACID [2]: 0.94 mg/dL
- ALANINE AMINOTRANSFERASE [3]: 30 u/L
- ALBUMIN [3]: 3.71 G/DL
- ALKALINE PHOSPHATASE [3]: 186.8 u/L
- ASPARTATE AMINOTRANSFERASE [3]: 78.2 u/L
- BLOOD UREA NITROGEN [3]: 14.2 mg/dL
- CHOLESTEROL [3]: 44.9 mg/dL
- CREATINE PHOSPHOKINASE [3]: 334.3 u/L
- CREATININE [3]: 0.6 mg/dL
- GLUCOSE [3]: 147.2 mg/dL
- LACTATE DEHYDROGENASE [3]: 123.1 u/L
- LIPASE [3]: 9.6 u/L
- PHOSPHORUS [3]: 10.01 mg/dL
- POTASSIUM [3]: 6.57 MEQ/L
- SODIUM [3]: 149.5 MEQ/L
- TOTAL BILIRUBIN [3]: 0.21 mg/dL
- TOTAL PROTEIN [3]: 6.66 G/DL
- URIC ACID [3]: 1.26 mg/dL
- ABSOLUTE BASOPHIL [4]: 130 cells/µL
- ABSOLUTE EOSINOPHIL [4]: 56 cells/µL
- ABSOLUTE LYMPHOCYTE [4]: 9210 cells/µL
- ABSOLUTE MONOCYTE [4]: 260 cells/µL
- ABSOLUTE SEGMENTED NEUTROPHIL [4]: 1220 cells/µL
- BASOPHIL [4]: 1.14% and 0.55%
- EOSINOPHIL [4]: 0.52% and 0.85%
- ERYTHROCYTE COUNT [4]: 7.23 x10E6/uL and 7.38 x10E6/uL
- HEMATOCRIT [4]: 44.18% and 47.65%
- LEUKOCYTE COUNT [4]: 10.96 x10E3/uL and 5.99 x10E3/uL
- LYMPHOCYTE [4]: 83.86% and 79.83%
- MEAN CORPUSCULAR HEMOGLOBIN [4]: 19.96 pg and 20.48 pg
- MEAN CORPUSCULAR HEMOGLOBIN CONCENTRATION [4]: 32.6 G/DL and 31.73 G/DL
- MEAN CORPUSCULAR VOLUME [4]: 64.58 fL
- MONOCYTE [4]: 2.34% and 2.35%
- NEUTROPHIL [4]: 11.32% and 14.95%
- PLATELET COUNT [4]: 1423.2 x10E3/uL and 1443.75 x10E3/uL
- ALANINE AMINOTRANSFERASE [4]: 32.8 u/L and 21 u/L
- ALBUMIN [4]: 3.28 G/DL
- ALKALINE PHOSPHATASE [4]: 176.2 u/L and 278.5 u/L
- ASPARTATE AMINOTRANSFERASE [4]: 100.4 u/L and 71 u/L
- BLOOD UREA NITROGEN [4]: 18.2 mg/dL and 15.25 mg/dL
- CARBON DIOXIDE [4]: 27 mmol/L
- CHLORIDE [4]: 106.6 MEQ/L and 106.75 MEQ/L
- CHOLESTEROL [4]: 68.4 mg/dL and 52.25 mg/dL
- CREATINE PHOSPHOKINASE [4]: 159.5 u/L and 253 u/L
- CREATININE [4]: 0.52 mg/dL and 0.45 mg/dL
- GLUCOSE [4]: 124.5 mg/dL
- LACTATE DEHYDROGENASE [4]: 57.5 u/L and 107.5 u/L
- LIPASE [4]: 28.8 u/L and 9.75 u/L
- PHOSPHORUS [4]: 9.6 mg/dL and 11.85 mg/dL
- POTASSIUM [4]: 5.78 MEQ/L and 5.65 MEQ/L
- SODIUM [4]: 150.8 MEQ/L and 151.5 MEQ/L
- TOTAL BILIRUBIN [4]: 0.18 mg/dL and 0.32 mg/dL
- TOTAL PROTEIN [4]: 5.68 G/DL and 6.25 G/DL
- URIC ACID [4]: 1.38 mg/dL and 2.12 mg/dL
- ABSOLUTE BASOPHIL [5]: 34 cells/µL
- ABSOLUTE EOSINOPHIL [5]: 82 cells/µL
- ABSOLUTE LYMPHOCYTE [5]: 8830 cells/µL
- ABSOLUTE MONOCYTE [5]: 250 cells/µL
- ABSOLUTE SEGMENTED NEUTROPHIL [5]: 1460 cells/µL
- MEAN CORPUSCULAR HEMOGLOBIN [5]: 20.12 pg
- ABSOLUTE BASOPHIL [6]: 110 cells/µL
- ABSOLUTE EOSINOPHIL [6]: 71 cells/µL
- ABSOLUTE LYMPHOCYTE [6]: 9610 cells/µL
- ABSOLUTE MONOCYTE [6]: 180 cells/µL
- ABSOLUTE SEGMENTED NEUTROPHIL [6]: 1180 cells/µL
- BASOPHIL [6]: 0.95%
- EOSINOPHIL [6]: 0.64%
- ERYTHROCYTE COUNT [6]: 7.92 x10E6/uL
- HEMATOCRIT [6]: 45.49%
- LEUKOCYTE COUNT [6]: 11.2 x10E3/uL
- LYMPHOCYTE [6]: 85.54%
- MEAN CORPUSCULAR HEMOGLOBIN [6]: 18.71 pg
- MEAN CORPUSCULAR HEMOGLOBIN CONCENTRATION [6]: 32.56 G/DL
- MEAN CORPUSCULAR VOLUME [6]: 57.51 fL
- MONOCYTE [6]: 1.65%
- NEUTROPHIL [6]: 10.78%
- PLATELET COUNT [6]: 1410.8 x10E3/uL
- CARBON DIOXIDE [5]: 25 mmol/L
- CHLORIDE [5]: 108.6 MEQ/L
- ALANINE AMINOTRANSFERASE [6]: 33.3 u/L
- ALBUMIN [6]: 3.51 G/DL
- ALKALINE PHOSPHATASE [6]: 144.9 u/L
- ASPARTATE AMINOTRANSFERASE [6]: 73.8 u/L
- BLOOD UREA NITROGEN [6]: 12.7 mg/dL
- CHLORIDE [6]: 107.3 MEQ/L
- CHOLESTEROL [6]: 48.9 mg/dL
- CREATINE PHOSPHOKINASE [6]: 237.4 u/L
- CREATININE [6]: 0.61 mg/dL
- GLUCOSE [6]: 141.1 mg/dL
- LACTATE DEHYDROGENASE [6]: 100.8 u/L
- LIPASE [6]: 13.2 u/L
- PHOSPHORUS [6]: 9.57 mg/dL
- POTASSIUM [6]: 6.28 MEQ/L
- SODIUM [6]: 150 MEQ/L
- TOTAL BILIRUBIN [6]: 0.2 mg/dL
- TOTAL PROTEIN [6]: 6.4 G/DL
- URIC ACID [6]: 1.22 mg/dL
